{
  "source": "patent US9290710B2",
  "about": "“Synergistic antimicrobial composition” (Dow Global Technologies LLC, priority 2009, dated 2016)",
  "key": {"[1]": {"tested_on": "oil field isolated anaerobic SRB consortium", "test": "Biocidal efficacy of THPS, DXN and THPS/DXN against SRB (99.99% reduction in 24 hours)", "type": "cell-based, Sulfate Reducing Bacteria (SRB)", "details": "alone or in THPS/DXN blend, 40° C., 10^6 to 10^7 CFU/mL", "description": "Inside an anaerobic chamber (Bactron III), a deaerated sterile salt solution (3.1183 g of NaCl, 1.3082 mg of NaHCO3, 47.70 mg of KCl, 72.00 mg of CaCl2, 54.49 mg of MgSO4, 172.28 mg of Na2SO4, 43.92 mg of Na2CO3 in 1 L water) was contaminated with an oil field isolated anaerobic SRB consortium at final bacterial concentrations of 10^6 to 10^7 CFU/mL. The aliquots of this contaminated water were then treated with THPS, DXN, or the THPS/DXN combinations at different active concentration levels. After the mixtures were incubated at 40° C. for 24 hour, the viable bacterial number were enumerated using a serial dilution method and the biocidal efficacy was determined by the biocide dosage required for 99.99% bacterial reduction in 24 hours. Synergy Index was then calculated. Table 3 summarizes the efficacy of each biocide and their blends, and the Synergy Index of each combination.\n(§1) A Synergy Index less than 1 indicates synergy."}, "[2]": {"tested_on": "Psedomonas aeruginosa ATCC 10145 and Staphylococcus aureus ATCC 6538", "test": "Biocidal efficacy of THPS, NaOPP and THPS/NaOPP against aerobic bacteria (99.999% reduction)", "type": "cell-based", "details": "alone or in THPS/NaOPP blend, PBS buffer (pH7), 37° C., 24 hour", "description": "A PBS buffer (pH7) was contaminated with Psedomonas aeruginosa ATCC 10145 and Staphylococcus aureus ATCC 6538 at final bacterial concentration of −10^6 CFU/ml. […] After the mixtures were incubated at 37° C. for 24 hour, the viable bacteria were enumerated using serial dilution method. The biocidal efficacy was determined by minimum tested biocide concentration for 99.999% bacterial reduction in the aliquots."}, "[3]": {"tested_on": "oil field isolated SRB consortium", "test": "Biocidal efficacy (MBC, complete kill) of THPS, NaOPP and THPS/NaOPP against SRB", "type": "cell-based, Sulfate Reducing Bacteria (SRB)", "details": "alone or in THPS/NaOPP blend, 40° C., 24 hours, 10^6 to 10^7 CFU/mL", "description": "Inside an anaerobic chamber (Bactron anaerobic chamber), a deaerated sterile salt solution (3.1183 g of NaCl, 1.3082 mg of NaHCO3, 47.70 mg of KCl, 72.00 mg of CaCl2, 54.49 mg of MgSO4, 172.28 mg of Na2SO4, 43.92 mg of Na2CO3 in 1 L water) was contaminated with an oil field isolated SRB consortium, at final bacterial concentrations of 10^6 to 10^7 CFU/mL. The aliquots of this contaminated water were then treated with THPS, NaOPP, or the THPS/NaOPP combinations at different active concentration levels. After the mixtures were incubated at 40° C. for 24 hours, the viable bacteria in the aliquots were detected in culture medium. The biocidal efficacy was determined by minimum tested biocide concentration for a complete bacterial kill in the aliquots (MBC). Table 4 summarizes the efficacy of each biocide and their blends, and the Synergy Index of each combination."}, "[4]": {"tested_on": "oil field isolated anaerobic consortium, mainly SRB", "test": "Biocidal efficacy (MBC, complete kill) of THPS, HHT and THPS/HHT against SRB, 40° C., 24 hour", "type": "cell-based, Sulfate Reducing Bacteria (SRB)", "details": "alone or in THPS/HHT blend, 10^6 to 10^7 CFU/mL", "description": "Inside an anaerobic chamber (Bactron anaerobic chamber), a deaerated sterile salt solution (3.1183 g of NaCl, 1.3082 mg of NaHCO3, 47.70 mg of KCl, 72.00 mg of CaCl2, 54.49 mg of MgSO4, 172.28 mg of Na2SO4, 43.92 mg of Na2CO3 in 1 L water) was contaminated with an oil field isolated anaerobic consortium, mainly SRB, at final bacterial concentrations of 10^6 to 10^7 CFU/mL. The aliquots of this contaminated water were then treated with THPS and hexahydro-1,3,5-tris(2-hydroxyethyl)-s-triazine (HHT), or the THPS/HHT combination at different active concentration levels. […] Table 1 summarizes the efficacy of each biocide and their blend, and the Synergy Index*^1 of each combination. *^1Synergy Index=Ca/CA+Cb/CB\n• Ca: Concentration of biocide A required to achieve a complete bacterial kill when used in combination with Biocide B • CA: Concentration of biocide A required to achieve a complete bacterial kill when used alone • Cb: Concentration of biocide B required to achieve a complete bacterial kill when used in combination with Biocide A • CB: Concentration of biocide B required to achieve a complete bacterial kill when used alone A Synergy Index less than 1 indicates synergy."}, "[5]": {"tested_on": "oil field isolated anaerobic consortium, mainly SRB", "test": "Biocidal efficacy of THPS, NaOPP and THPS/NaOPP against anaerobic bacteria (99.999% reduction)", "type": "cell-based, Sulfate Reducing Bacteria (SRB)", "details": "alone or in THPS/NaOPP blend, 40° C., 24 hour, 10^7 CFU/mL", "description": "Inside an anaerobic chamber (Bactron anaerobic chamber), a deaerated sterile salt solution (3.1183 g of NaCl, 1.3082 mg of NaHCO3, 47.70 mg of KCl, 72.00 mg of CaCl2, 54.49 mg of MgSO4, 172.28 mg of Na2SO4, 43.92 mg of Na2CO3 in 1 L water) was contaminated with an oil field isolated anaerobic consortium, mainly SRB, at final bacterial concentrations of 10^7 CFU/mL. […] After the mixtures were incubated at 40° C. for 24 hour, the viable bacteria were enumerated using serial dilution method. The biocidal efficacy was determined by minimum tested biocide concentration for 99.999% bacterial reduction in the aliquots."}, "oilfield SRB consortium": {"tested_on": "oilfield SRB consortium", "test": "Biocidal efficacy of THPS/HHT against anaerobic bacteria in a high temperature and sulfide-rich environment", "type": "cell-based, Sulfate Reducing Bacteria (SRB)", "details": "alone or in THPS/HHT blend, 80° C., 7 days, daily challenge of SRB and 10 ppm sulfide", "description": "Inside an anaerobic chamber (BACTRON IV), biocides solutions were challenged with 10^4 to 10^5 CFU/mL of an oilfield SRB consortium and 10 ppm sulfide ion (added in the form of sodium sulfide). The biocide solutions were then incubated at 80° C. under anaerobic condition for 7 days, with daily challenge of the SRB consortium (10^4 to 10^5 CFU/mL) and sulfide ion (10 ppm). The biocidal efficacy was determined by selecting the lowest testing biocide dosage required for 99.999% or complete bacterial kill after both 2 hours and 7 days of heat, SRB and sulfide exposure. Synergy Index was then calculated. Table 2 summarizes the efficacy of each biocide and their blend, and the Synergy Index of each combination.\nas §1"}},
  "data": [
    {"compound": "CC(=O)OC1CC(C)OC(C)O1", "note": "(stereo not drawn) [DXN, 2,6-dimethyl-1,3-dioxan-4-yl acetate]", "values": [
      {"measurement": "Dosage required for 99.99% bacterial reduction, DXN", "setting": "[1]; DXN", "result": 330.9, "unit": "active ppm"}
    ]},
    {"compound": "tetrakis(hydroxymethyl)phosphonium sulfate [THPS]", "values": [
      {"measurement": "Concentration required for 99.999% bacterial reduction, THPS", "setting": "[2]; THPS", "result": 26.7, "unit": "ppm active"},
      {"measurement": "Average MBC THPS", "setting": "[3]; THPS concentration for complete bacterial kill", "result": 7.9, "unit": "active ppm"},
      {"measurement": "Average MBC THPS", "setting": "[4]; THPS concentration for complete bacteria kill", "result": 6.1, "unit": "active ppm"},
      {"measurement": "Concentration required for 99.999% bacterial reduction, THPS", "setting": "[5]; THPS", "result": 11.9, "unit": "ppm active"},
      {"measurement": "Dosage required for 99.99% bacterial reduction, THPS", "setting": "[1]; THPS", "result": 5.5, "unit": "active ppm"},
      {"measurement": "Dosage required for 99.999% or complete bacterial kill of both 2 h and 7 day heat, SRB, and sulfide exposure, THPS", "setting": "oilfield SRB consortium; THPS", "result": 88.9, "unit": "active ppm"}
    ]},
    {"compound": "[Na+].[O-]c1ccccc1-c1ccccc1", "note": "[NaOPP, sodium o-phenylphenylate]", "values": [
      {"measurement": "Concentration required for 99.999% bacterial reduction, NaOPP", "setting": "[2]; NaOPP", "result": 202.5, "unit": "ppm active"},
      {"measurement": "Average MBC NaOPP", "setting": "[3]; NaOPP concentration for complete bacterial kill", "result": 333.3, "unit": "active ppm"},
      {"measurement": "Concentration required for 99.999% bacterial reduction, NaOPP", "setting": "[5]; NaOPP", "result": 303.8, "unit": "ppm active"}
    ]},
    {"compound": "OCCN1CN(CCO)CN(CCO)C1", "note": "[HHT, hexahydro-1,3,5-tris(2-hydroxyethyl)-s-triazine]", "values": [
      {"measurement": "Average MBC HHT", "setting": "[4]; HHT concentration for complete bacteria kill", "result": 79.0, "unit": "active ppm"},
      {"measurement": "Dosage required for 99.999% or complete bacterial kill of both 2 h and 7 day heat, SRB, and sulfide exposure, HHT", "setting": "oilfield SRB consortium; HHT", "result": 133.3, "unit": "active ppm"}
    ]}
  ]
}
